Experimental data as given in article PMC6942878 (Analytical biochemistry, 2019).

Biological target: murine double minute 2 (MDM2) (Homo sapiens, UniProt Q00987)
Assay: biochemical
Format: binding

murine double minute 2 (MDM2), sequence (Q00987 3-155): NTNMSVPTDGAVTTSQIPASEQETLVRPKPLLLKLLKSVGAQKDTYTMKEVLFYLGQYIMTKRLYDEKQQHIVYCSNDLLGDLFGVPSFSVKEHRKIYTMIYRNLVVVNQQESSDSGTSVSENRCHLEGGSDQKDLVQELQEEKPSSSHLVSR

IC50	SMILES
367 nM	CN1CCCC(n2nc(Cc3ccc(Cl)cc3)c3ccccc3c2=O)CC1 (centres unmarked) [azelastine]
206 nM	CC(C)COCC(CN(Cc1ccccc1)c1ccccc1)N1CCCC1 (centres unmarked) [bepridil]
